Results published in patent publication US20240277744A1, “TREATMENT OF CHEMORESISTANT CANCER CELLS” (Cornell University, priority 2023, published 2024).

Assays:
[1] = system: UGT1A10 transcript in SW1990GR cells; assay: qRT-PCR of UGT1A10 expression; assay type: cell-based
Experimental: (§1) qRT-PCR. Reverse transcription reaction was prepared with 0.5-2 μg total RNA using High Capacity cDNA Reverse Transcription Kit (Applied Biosystems). Products were diluted 10 folds with DNase&RNase free water as template. qPCR reactions were prepared with 2× LightCycler 480 SYBR Green I Master reagent (Roche) and proceeded in LightCycler 480 II (Roche) with software LightCycler 480 SW1.5.1 for signal acquisition and processing. ACTB was employed as internal reference. Primers were listed below: […]

[2] = system: UGT1A10 transcript in SW1990 cells; assay: qRT-PCR of UGT1A10 expression; assay type: cell-based; details: SW1990, CYM treatment
Experimental: as §1

SW1990 cells = assay: Growth curve / proliferation assay; assay type: cell-based; details: SW1990, 50 nM CYM
Experimental: (§2) To quantify growth, Cells were seeded into 96-well plates (2000/well). After overnight incubation, medium with indicated drug was refreshed. Cell proliferation was quantified every 2 days using CellTiter 96® AQueous Non-Radioactive Cell Proliferation Assay (Promega).

SW1990GR cells = assay: Growth curve / proliferation assay; assay type: cell-based; details: 25 nM CYM
Experimental: as §2

SW1990 xenograft tumors = assay: Luciferase-labeled SW1990 xenograft in nude mice; assay type: in vivo
Experimental: CYM suppresses TRA-1-60 expression and blocks tumor growth in vivo. Next it was sought to validate the effects of CYM in vivo, using a xenograft model with luciferase-labeled SW1990 cells propagated in nude mice. Tumor-harboring mice were separated into 4 groups and treated with PBS (control), 2 mg/kg CYM, 50 mg/kg GEM, or 2 mg/kg CYM plus 50 mg/kg GEM through intraperitoneal injections twice per week. Luciferase intensity was quantified twice per week and normalized with the value obtained from the starting day. […] Consistent with imaging, of the four groups, mice treated with GEM plus CYM generated xenograft tumors with the smallest size (FIG. 6C) and weight (FIG. 6D).
Tissue samples were fixed with 4% paraformaldehyde overnight at 4° C., washed with 70% ethanol and then embedded in paraffin. After De-paraffin and rehydration, antigen retrieval was preceded in hot antigen retrieving buffer with a normal-pressure steamer for 30 min. blocking was proceeded 1 hour at room temperature in PBS containing 1% horse serum. Primary antibody was stained overnight at 4° C. in PBS plus 0.5% Triton X-100 and 5% horse serum. Secondary antibody was incubated at room temperature for 1.5 hours.
Mouse Procedures. To assess in vivo effects of Cymarin (CYM), Luciferase-labelled SW1990 cells were transplanted to nude mice subcutaneously. Each mouse received four injections (5×10^5 cells/site). 12 days later, mice were randomly separated into 4 groups and treated with PBS (control), GEM (50 mg/kg bodyweight), CYM (2 mg/kg bodyweight) or GEM (50 mg/kg bodyweight) plus CYM (2 mg/kg bodyweight) twice weekly via intraperitoneal injection. Image acquisition was performed twice weekly with Xtreme Optical and X-ray small animal imaging system. Luciferin potassium salt (Regis), substrate of luciferase, was applied at 2 mg/25 g bodyweight in 150 μl PBS. Isoflurane (Henry Schein) was used for anesthesia during imaging.

CO[C@H]1C[C@H](O[C@H]2CC[C@]3(C=O)[C@H]4CC[C@]5(C)[C@@H](C6=CC(=O)OC6)CC[C@]5(O)[C@@H]4CC[C@]3(O)C2)O[C@H](C)[C@H]1O [CYM, Cymarin]
expression of UGT1A10 in TRA-1-81+ and TRA-1-81− subpopulations ([1]; 25 nM CYM): significantly inhibits
UGT1A10 transcript levels ([1]; CYM treatment): decreased
UGT1A10 transcript levels [2]: decreased
proliferation (SW1990 cells): significantly decreased the proliferation
proliferation (SW1990GR cells): sufficient to block the proliferation
tumor growth (luciferase intensity) (SW1990 xenograft tumors; 3 weeks, i.p. twice per week, GEM 50 mg/kg, CYM 2 mg/kg): grew more slowly
percentage of TRA-1-60+ cells in xenograft tumors (SW1990 xenograft tumors; CYM administration in GEM-treated tumors, immunofluorescence): ~13%
cell apoptosis in xenograft tumors (TUNEL+ cells) (SW1990 xenograft tumors; TUNEL assay): cell death increased
